Measured values reported in patent US20120076808A1, “COMBINED ANTIGEN AND DNA VACCINE FOR PREVENTING AND TREATING AUTOIMMUNE DISEASES” (CHINA AGRICULTURAL UNIVERSITY, priority 2010, published 2012).

Tests used:
JAWS II cells = assay: Endocytosis inhibitor pre-treatment of JAWS II cells fed pOVA323+OVA323, CD40 staining; format: cell-based, mouse; conditions: pre-treatment before pOVA323+OVA323
Procedure: FIG. 24. DCs co-take up DNA and protein immunogens via clathrin- and caveolae-mediated endocytosis. A) JAWS II cells were pre-treated with PBS, MDC (50 μM), or filipin (10 μg/ml) for 30 min at 37° C. and then fed Cy5-pOVA323+FITC-OVA323 or Cy5-pVAX+FITC-OVA323 for 24 h. The cells were stained with anti-CD40-PE and analyzed by flow cytometry. Shown is CD40 staining of Cy5/FITC double-positive cells (gated). B) A summary of the experimental results are shown.
FIG. 30. Effect of amiloride on the expression of CD40 in JAWS II cells. JAWS II cells were pre-treated with amiloride (5 mM) for 10 min at 37° C. and then co-treated with Cy5-pOVA323+FITC-OVA323 or Cy5-pVAX+FITC-OVA323 for 24 h. The cells were stained with anti-CD40-PE and analyzed by flow cytometry.
The JAWS II mouse DC line was purchased from the American Type Culture Collection (ATCC, Manassas, Va., USA) and maintained in complete growth medium containing minimum essential medium (MEM) alpha with ribonucleosides, deoxyribonucleosides, 4 mM L-glutamine, and 1 mM sodium pyruvate (Invitrogen Inc., Carlsbad, Calif., USA), and supplemented with 20% fetal bovine serum (ATCC) and 5 ng/ml murine recombinant GM-CSF (R&D Systems, Inc., Minneapolis, Minn., USA). The cells were incubated at 37° C. with 5% CO2 and treated with different antigens (10 μg/ml) such as pVAX, pOVA, OVA, pOVA323 and OVA323 for 24 h. […]

[1] = test system: BALB/c mice with OVA-induced inflammatory bronchitis; assay: OVA-induced inflammatory bronchitis, adoptive transfer of DCregs; format: in vivo; conditions: DCs pretreated with filipin
Procedure: FIG. 28. Co-immunization-induced DCregs ameliorate inflammatory bronchitis. A) Experimental design: Balb/c mice were injected with 0.1 ml of 1 mg/ml OVA/alum complexes in PBS on days 0 and 7 by i.p. and subsequently challenged with 100 μg OVA intra-tracheally on days 14, 16 and 18 to establish the “model”. Control mice were received with PBS intra-tracheally on days 14, 16 and 18 and designated as the “shame” control. On day 21, 5×10^5 of CD11c+ cells from syngeneic donor mice were transferred into model mice once daily for 3 consecutive days by i.v. (n=3 per group). Prior to the transfer, donor CD11c+ cells purified from spleen of naïve mice were pre-treated with or without filipin and subsequently co-treated with pOVA+OVA or pVAX+OVA for 24 h. On day 14 after the final transfer, serum samples were taken to analyze the levels of IgE or cytokine productions. Sections of lung tissues were made to evaluate disease severity. B) the level of antigen specific IgE was analyzed by ELISA following adoptive transfer of indicated DCs. […] D) Lung sections were examined by H&E staining and recorded under a light microscope at ×100 and ×200 magnification. […]
Lung or ovary were fixed in 4% paraformaldehyde or Bouin's solution and embedded in paraffin blocks. […] Histopathology of lung or ovary was evaluated under a light microscope. […]

## CCCCC[C@@H](O)[C@H]1C(=O)O[C@H](C)[C@@H](O)/C=C/C=C/C=C/C=C/C=C(\C)[C@@H](O)C[C@H](O)C[C@H](O)C[C@H](O)C[C@H](O)C[C@H](O)C[C@@H]1O [filipin]
JAWS II cells
  effect on CD40low phenotype / CD40 expression: could prevent the CD40^1′ phenotype, filipin was more effective than MDC
[1]
  anti-inflammatory effect of pOVA+OVA treated DCs after inhibitor pre-treatment: absent
